# The source made the active and inactive calls. The rule behind the calls is not given here. Starred links: 1 amine or outer side, 2 acyl side, 3 side chain; linkers in the order of their positions; H or OH if unused. Non-standard residues stand in square brackets, D forms with d. Residues, ends and D or L forms follow the SMILES beside them. *: point of attachment. C20 diacid = O=C(O)CCCCCCCCCCCCCCCCCCC(=O)*; γGlu = O=C(O)[C@H](CCC(=O)[*:2])N[*:1]; Iva = CC[C@](C)(N)C(=O)O; PEG2 = NCCOCCOCCC(=O)O
# Legend:
# [1] = tested on: TC-1; assay: Antifibrotic activity against BLM-induced mouse TC-1 cells assessed as reduction in MMP-12 expression at 10 uM after 24 hrs by Western blotting analysis; assay type: functional, cell-based
# [2] = tested on: Mus musculus; assay: Antifibrotic activity against BLM-induced C57BL/6 mouse pulmonary fibrosis model assessed as reduction in Tpm1 gene expression at 240 ug/kg/day, sc administered for 2 weeks starting from 7 days post BLM induction and measured after 21 days post BLM induction by ScRNA-sequencing analysis; assay type: functional, organism-based; settings: dose 240.0 µg/kg/day
# [3] = tested on: Mus musculus; assay: Antifibrotic activity against BLM-induced C57BL/6 mouse pulmonary fibrosis model assessed as reduction in Vimentin expression at 240 ug/kg/day, sc administered for 2 weeks starting from 7 days post BLM induction and measured after 21 days post BLM induction in presence of Clo-Lip; assay type: functional, organism-based; settings: dose 240.0 µg/kg/day
# [4] = tested on: RAW264.7; assay: Antifibrotic activity against BLM-induced mouse RAW264.7 cells assessed as upregulation of MMP-12 expression at 10 uM incubated for 6 to 24 hrs by ELISA; assay type: functional, cell-based; settings: time 6-24 hrs
# [5] = tested on: Mus musculus; assay: Antifibrotic activity against BLM-induced C57BL/6 mouse pulmonary fibrosis model assessed as reduction in TIMP-1 expression at 240 ug/kg/day, sc administered for 2 weeks starting from 7 days post BLM induction and measured after 21 days post BLM induction in presence of GM6001; assay type: functional, organism-based; settings: dose 240.0 µg/kg/day
# [6] = tested on: A549; assay: Antifibrotic activity against BLM-induced human A549 cells cocultured with RAW264.7 cells assessed as reduction in Fn expression at 10 uM after 24 hrs by Western blotting analysis; assay type: functional, cell-based
# [7] = tested on: Mus musculus; assay: Antifibrotic activity against BLM-induced C57BL/6 mouse pulmonary fibrosis model assessed as reduction in FN expression at 240 ug/kg/day, sc administered for 2 weeks starting from 7 days post BLM induction and measured after 21 days post BLM induction in presence of GM6001; assay type: functional, organism-based; settings: dose 240.0 µg/kg/day
# [8] = tested on: Mus musculus; assay: Antifibrotic activity against BLM-induced C57BL/6 mouse pulmonary fibrosis model assessed as reduction in Fbn1 gene expression at 240 ug/kg/day, sc administered for 2 weeks starting from 7 days post BLM induction and measured after 21 days post BLM induction by ScRNA-sequencing analysis; assay type: functional, organism-based; settings: dose 240.0 µg/kg/day
# [9] = tested on: Mus musculus; assay: Antifibrotic activity against BLM-induced C57BL/6 mouse pulmonary fibrosis model assessed as downregulation of TNFalpha gene expression in lung tissue at 150 ug/kg, sc administered for 2 weeks starting from 7 days post BLM induction and measured after 21 days post BLM induction by RT-qPCR assay; assay type: functional, organism-based; settings: dose 150.0 µg/kg
# [10] = tested on: Mus musculus; assay: Antifibrotic activity against BLM-induced C57BL/6 mouse pulmonary fibrosis model assessed as increase in MMP-12 expression at 240 ug/kg/day, sc administered for 2 weeks starting from 7 days post BLM induction and measured after 21 days post BLM induction; assay type: functional, organism-based; settings: dose 240.0 µg/kg/day
# [11] = tested on: Mus musculus; assay: Antifibrotic activity against BLM-induced C57BL/6 mouse pulmonary fibrosis model assessed as reduction in Fn gene expression at 240 ug/kg/day, sc administered for 2 weeks starting from 7 days post BLM induction and measured after 21 days post BLM induction by ScRNA-sequencing analysis; assay type: functional, organism-based; settings: dose 240.0 µg/kg/day
# [12] = tested on: Mus musculus; assay: Antifibrotic activity against BLM-induced C57BL/6 mouse pulmonary fibrosis model assessed as downregulation of Mmp-9 gene expression in lung tissue at 150 ug/kg, sc administered for 2 weeks starting from 7 days post BLM induction and measured after 21 days post BLM induction by RT-qPCR assay; assay type: functional, organism-based; settings: dose 150.0 µg/kg
# [13] = tested on: Mus musculus; assay: Antifibrotic activity against BLM-induced C57BL/6 mouse pulmonary fibrosis model assessed as reduction in lung vimentin expression at 240 ug/kg/day, sc administered for 2 weeks starting from 7 days post BLM induction and measured after 21 days post BLM induction by Western blotting analysis; assay type: functional, organism-based; settings: dose 240.0 µg/kg/day
# [14] = tested on: Mus musculus; assay: Antifibrotic activity against BLM-induced sc dosed C57BL/6 mouse pulmonary fibrosis model assessed as reversal of body weight indices administered for 2 weeks starting from 7 days post BLM induction and measured after 21 days post BLM induction; assay type: functional, organism-based; settings: dose 30-240 µg/kg
# [15] = tested on: TC-1; assay: Antifibrotic activity against BLM-induced mouse TC-1 cells assessed as reduction in FN expression at 10 uM after 24 hrs by Western blotting analysis; assay type: functional, cell-based
# [16] = tested on: Mus musculus; assay: Antifibrotic activity against BLM-induced C57BL/6 mouse pulmonary fibrosis model assessed as reduction in Col1a1 gene expression at 240 ug/kg/day, sc administered for 2 weeks starting from 7 days post BLM induction and measured after 21 days post BLM induction by ScRNA-sequencing analysis; assay type: functional, organism-based; settings: dose 240.0 µg/kg/day
# [17] = tested on: Mus musculus; assay: Antifibrotic activity against BLM-induced C57BL/6 mouse pulmonary fibrosis model assessed as reduction in Acta2 gene expression at 240 ug/kg/day, sc administered for 2 weeks starting from 7 days post BLM induction and measured after 21 days post BLM induction by ScRNA-sequencing analysis; assay type: functional, organism-based; settings: dose 240.0 µg/kg/day
# [18] = tested on: Mus musculus; assay: Antifibrotic activity against BLM-induced C57BL/6 mouse pulmonary fibrosis model assessed as reduction in lung Fn expression at 240 ug/kg/day, sc administered for 2 weeks starting from 7 days post BLM induction and measured after 21 days post BLM induction by Western blotting analysis; assay type: functional, organism-based; settings: dose 240.0 µg/kg/day
# [19] = tested on: Mus musculus; assay: Antifibrotic activity against BLM-induced C57BL/6 mouse pulmonary fibrosis model assessed as reduction in Col5a1 gene expression at 240 ug/kg/day, sc administered for 2 weeks starting from 7 days post BLM induction and measured after 21 days post BLM induction by ScRNA-sequencing analysis; assay type: functional, organism-based; settings: dose 240.0 µg/kg/day
# [20] = tested on: Mus musculus; assay: Antifibrotic activity against BLM-induced C57BL/6 mouse pulmonary fibrosis model assessed as reduction in Tpm2 gene expression at 240 ug/kg/day, sc administered for 2 weeks starting from 7 days post BLM induction and measured after 21 days post BLM induction by ScRNA-sequencing analysis; assay type: functional, organism-based; settings: dose 240.0 µg/kg/day
# [21] = Stability in rat serum measured upto 48 hrs by LC-MS/MS method; assay type: ADME, cell-free
# [22] = tested on: A549; assay: Antifibrotic activity against BLM-induced human A549 cells assessed as reduction in MMP-12 expression at 10 uM after 24 hrs by Western blotting analysis; assay type: functional, cell-based
# [23] = tested on: Mus musculus; assay: Antifibrotic activity against BLM-induced C57BL/6 mouse pulmonary fibrosis model assessed as reduction in Col3a1 gene expression at 240 ug/kg/day, sc administered for 2 weeks starting from 7 days post BLM induction and measured after 21 days post BLM induction by ScRNA-sequencing analysis; assay type: functional, organism-based; settings: dose 240.0 µg/kg/day
# [24] = tested on: Mus musculus; assay: Antifibrotic activity against BLM-induced C57BL/6 mouse pulmonary fibrosis model assessed as reduction in MMP-12 expression at 240 ug/kg/day, sc administered for 2 weeks starting from 7 days post BLM induction and measured after 21 days post BLM induction in presence of GM6001; assay type: functional, organism-based; settings: dose 240.0 µg/kg/day
# [25] = tested on: Mus musculus; assay: Antifibrotic activity against BLM-induced C57BL/6 mouse pulmonary fibrosis model assessed as reduction in TIMP-1 expression at 240 ug/kg/day, sc administered for 2 weeks starting from 7 days post BLM induction and measured after 21 days post BLM induction in presence of Clo-Lip; assay type: functional, organism-based; settings: dose 240.0 µg/kg/day
# [26] = tested on: A549; assay: Inhibition of EBP signaling pathway in TGFalpha induced human A549 cells assessed as reduction in AKT phosphorylation at 10 uM incubated for 24 hrs by Western blotting analysis; assay type: cell-based
# [27] = tested on: Mus musculus; assay: Antifibrotic activity against BLM-induced C57BL/6 mouse pulmonary fibrosis model assessed as reduction in proportion of fibroblasts at 240 ug/kg/day, sc administered for 2 weeks starting from 7 days post BLM induction and measured after 21 days post BLM induction; assay type: functional, organism-based; settings: dose 240.0 µg/kg/day
smiles,measurement,setting,value
CC[C@](C)(NC(=O)[C@@H](NC(=O)CCOCCOCCNC(=O)CCOCCOCCNC(=O)CC[C@H](NC(=O)CCCCCCCCCCCCCCCCCCC(=O)O)C(=O)O)C(C)C)C(=O)NCC(=O)N[C@@H](CO)C(=O)N1CCC[C@H]1C(=O)N[C@@H](CO)C(=O)N[C@@H](C)C(=O)N[C@@H](CCC(N)=O)C(=O)N[C@@H](CCC(=O)O)C(=O)N[C@@H](CCC(=O)O)C(=O)N[C@@H](C)C(=O)N[C@@H](CO)C(=O)N1CCC[C@H]1C(=O)N[C@@H](C)C(N)=O ({C20 diacid-γGlu-PEG2-PEG2}-V[Iva]GSPSAQEEASPA-NH2),Activity,[1],inactive
same,Activity,[2],Active
same,Activity,[3],inactive
same,Activity,[4],Active
same,Activity,[5],inactive
same,Activity,[6],Active
same,Activity,[7],inactive
same,Activity,[8],Active
same,Activity,[9],Active
same,Activity,[10],Active
same,Activity,[11],Active
same,Activity,[12],Active
same,Activity,[13],Active
same,Activity,[14],Dose-Dependent Effect
same,Activity,[15],Active
same,Activity,[16],Active
same,Activity,[17],Active
same,Activity,[18],Active
same,Activity,[19],Active
same,Activity,[20],Active
same,Stability,[21],Stable
same,Activity,[22],inactive
same,Activity,[23],Active
same,Activity,[24],inactive
same,Activity,[25],inactive
same,inhibition,[26],Active
same,Activity,[27],Active

# Source: ChEMBL document CHEMBL5543137, “Design and Synthesis of Novel Ultralong-Acting Peptides as EDP-EBP Interaction Inhibitors for Pulmonary Fibrosis Treatment” (J Med Chem, 2024)
